# Laboratory results from ChEMBL document CHEMBL3797109, “Biochemometrics for Natural Products Research: Comparison of Data Analysis Approaches and Application to Identification of Bioactive Compounds” (2016).
# Columns and labels:
# Staphylococcus aureus [1] = experiment: Antimicrobial activity against Staphylococcus aureus SA1199 after 24 hrs by CLSI method; assay type: functional; settings: SA1199, 24 h
# Staphylococcus aureus [2] = experiment: Antimicrobial activity against methicillin-resistant Staphylococcus aureus USA300 LAC AH1263 after 24 hrs by CLSI method; assay type: functional; settings: USA300 LAC AH1263, 24 h
Structure (SMILES),MIC (Staphylococcus aureus [1]) [µM],MIC (Staphylococcus aureus [2]) [µM]
C[C@@H]1OC(=O)/C=C/[C@@H](O)[C@H](C)OC(=O)C[C@H](C)OC(=O)/C=C/[C@H]1O,219,
COc1ccc2cc3[n+](cc2c1OC)CCc1cc2c(cc1-3)OCO2 [BERBERINE],446,446
COc1cc(O)c2c(=O)oc3cc(O)cc(C)c3c2c1,275,
